The experiment relates to Wnt pathway (TCF-dependent transcription in HEK293 luciferase reporter cell line with ER-DSH construct). The experiment is described as follows: Cellular assay for Wnt pathway activity (luciferase reporter). The experiment is classed as cell-based. The settings on record: Homo sapiens; Wnt pathway inhibition, HEK293 luciferase reporter cells (ER-DSH, TCF promoter), 24 hours incubation, estrogen-induced. The method in brief:
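Luminescent luciferase read-out after 24 h compound exposure at 1 nM to 30 μM, with TCF-driven transcription switched on by estrogen addition. IC50 values come from curve fits of data normalized against the vehicle-only control.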
For orientation: Reporter assays use an easily measured gene product as a stand-in for the process of interest.
As usually defined, the IC50 is the concentration needed to halve the response being measured. Low readings indicate greater potency in that assay, high ones weaker potency in that assay. `CC(=O)N(C)CCN(C)c1cncc(Oc2ccc(-c3ccc(N4CCNCC4)nc3)cc2)n1` [Compound 245, N-Methyl-N-[2-(methyl-{6-[4-(6-piperazin-1-yl-pyridin-3-yl)-phenoxy]-pyrazin-2-yl}-amino)-ethyl]-acetamide] registered a 50% inhibitory concentration (IC50) of under 200 nM.
Consider `CCC(C)(C)c1ccc(Oc2cncc(N(C)CCN(C)C(C)=O)n2)cc1` [Compound 139, N-[2-({6-[4-(1,1-Dimethyl-propyl)-phenoxy]-pyrazin-2-yl}-methyl-amino)-ethyl]-N-methyl-acetamide], for which the IC50 is 200 to 1000 nM.
Regarding `CC(=O)N(C)CCN(C)c1cncc(Oc2ccc(CCC#N)cc2)n1` [Compound 232, N-[2-({6-[4-(2-Cyano-ethyl)-phenoxy]-pyrazin-2-yl}-methyl-amino)-ethyl]-N-methyl-acetamide], the IC50 was under 200 nM.
Consider `CC(=O)N(C)CCN(C)c1cncc(Oc2ccc(-c3cccnc3)c(F)c2F)n1` [Compound 279, N-(2-{[6-(2,3-Difluoro-4-pyridin-3-yl-phenoxy)-pyrazin-2-yl]-methyl-amino}-ethyl)-N-methyl-acetamide], for which the IC50 was under 200 nM.
With `O=C1CCCCN1CCNc1cncc(Oc2ccc(N3CCOCC3)cc2)n1` [Compound 307, 1-{2-[6-(4-Morpholin-4-yl-phenoxy)-pyrazin-2-ylamino]-ethyl}-piperidin-2-one], the IC50 was in the range of 200 to 1000 nM.
For `CC(=O)N(C)CCCc1cncc(Oc2ccc(-c3cnc(N)cn3)cc2)c1` [Compound 323, N-(3-{5-[4-(5-Amino-pyrazin-2-yl)-phenoxy]-pyridin-3-yl}-propyl)-N-methyl-acetamide], the 50% inhibitory concentration (IC50) lay within 200 to 1000 nM.
`CC(=O)N(C)CCN(C)c1cncc(Oc2ccc(-c3ccc(N=[N+]=[N-])cn3)cc2)n1` [Compound 273, N-[2-({6-[4-(5-Azido-pyridin-2-yl)-phenoxy]-pyrazin-2-yl}-methyl-amino)-ethyl]-N-methyl-acetamide] yielded an IC50 of under 200 nM.
`N#Cc1cnccc1-c1ccc(Oc2cncc(NCCN3CCCCC3=O)n2)cc1` [Compound 296, 4-(4-{6-[2-(2-Oxo-piperidin-1-yl)-ethylamino]-pyrazin-2-yloxy}-phenyl)-nicotinonitrile]: the concentration for half-maximal inhibition (IC50) lay in the range of 200 to 1000 nM.
As to `CN(CCN(C)S(C)(=O)=O)c1cncc(Oc2ccc(F)cc2)n1` [Compound 281, N-(2-{[6-(4-Fluoro-phenoxy)-pyrazin-2-yl]-methyl-amino}-ethyl)-N-methyl-methane-sulfonamide], the half-maximal inhibitory concentration (IC50) lay in the range of 1000 to 10000 nM.
`CC(=O)N(C)CCN(C)c1cncc(Sc2ccc(Br)cc2)n1` [Compound 130, N-(2-{[6-(4-Bromo-phenyl-sulfanyl)-pyrazin-2-yl]-methyl-amino}-ethyl)-N-methyl-acetamide] displayed an IC50 of 1000 to 10000 nM.
The compound `O=C1[C@@H]2CC[C@@H](C2)N1CCCc1cncc(Oc2ccc(F)cc2)n1` [Compound 303, (1S,4R)-2-{3-[6-(4-Fluoro-phenoxy)-pyrazin-2-yl]-propyl}-2-aza-bicyclo[2.2.1]heptan-3-one] had an IC50 of 200 to 1000 nM.
For `CC(=O)N(C)CCN(C)c1cncc(Oc2ccc(-c3ccnc(C#N)c3)cc2)n1` [Compound 201, N-[2-({6-[4-(2-Cyano-pyridin-4-yl)-phenoxy]-pyrazin-2-yl}-methyl-amino)-ethyl]-N-methyl-acetamide], the concentration for half-maximal inhibition (IC50) is under 200 nM.
`CN(CCN(C)c1cncc(Oc2ccc(F)cc2)n1)C(=O)CO` [Compound 286, N-(2-{[6-(4-Fluoro-phenoxy)-pyrazin-2-yl]-methyl-amino}-ethyl)-2-hydroxy-N-methyl-acetamide] had an IC50 of under 200 nM.
Compound `CN(CCCN(C)c1cncc(Oc2ccc(F)cc2)n1)C(=O)C(F)(F)F` [Compound 84, 2,2,2-Trifluoro-N-(3-{[6-(4-fluoro-phenoxy)-pyrazin-2-yl]-methyl-amino}-propyl)-N-methyl-acetamide] returned an IC50 of 1000 to 10000 nM.
Take `CC(=O)N(C)CCN(C)c1cncc(Oc2ccc(Br)c(C)c2)n1` [Compound 111, N-(2-{[6-(4-Bromo-3-methyl-phenoxy)-pyrazin-2-yl]-methyl-amino}-ethyl)-N-methyl-acetamide]: the IC50 is 200 to 1000 nM.
The figure for `CC(=O)N(C)CCN(C)c1cncc(Oc2ccc(C(=O)c3ccco3)cc2)n1` [Compound 157, N-[2-({6-[4-(Furan-2-carbonyl)-phenoxy]-pyrazin-2-yl}-methyl-amino)-ethyl]-N-methyl-acetamide] is under 200 nM; for `CC(=O)N(C)CCN(C)c1cncc(Oc2ccc(Cl)cc2F)n1` [Compound 110, N-(2-{[6-(4-Chloro-2-fluoro-phenoxy)-pyrazin-2-yl]-methyl-amino}-ethyl)-N-methyl-acetamide] it is 200 to 1000 nM.
`CC(=O)NCCSc1cncc(Oc2ccc(F)cc2)n1` [Compound 119, N-{2-[6-(4-Fluoro-phenoxy)-pyrazin-2-ylsulfanyl]-ethyl}-acetamide] showed a half-inhibitory concentration (IC50) of 1000 to 10000 nM.
The compound `CC(=O)N(C)CCCc1cncc(Oc2ccc(-c3ccncc3C#N)cc2)c1` [Compound 321, N-(3-{5-[4-(3-Cyano-pyridin-4-yl)-phenoxy]-pyridin-3-yl}-propyl)-N-methyl-acetamide] registered an IC50 of under 200 nM.
`C#CCOC(=O)Nc1ccc(-c2ccc(Oc3cncc(N(C)CCN(C)C(C)=O)n3)cc2)nc1` [Compound 244, {6-[4-(6-{[2-(Acetyl-methyl-amino)-ethyl]-methyl-amino}-pyrazin-2-yloxy)-phenyl]-pyridin-3-yl}-carbamic acid prop-2-ynyl ester] had a half-maximal inhibitory concentration (IC50) of under 200 nM.
The compound `CC(=O)N1CCCC1CNc1cncc(Oc2ccc(F)cc2)n1` (stereo not drawn) [Compound 62, 1-(2-{[6-(4-Fluoro-phenoxy)-pyrazin-2-ylamino]-methyl}-pyrrolidin-1-yl)-ethanone] gave a half-maximal inhibitory concentration (IC50) of 1000 to 10000 nM.
As to `CSc1cccc(Oc2cncc(N(C)CCN(C)C(C)=O)n2)c1` [Compound 50, N-Methyl-N-(2-{methyl-[6-(3-methyl-sulfanyl-phenoxy)-pyrazin-2-yl]-amino}-ethyl)-acetamide], the IC50 was in the range of 200 to 1000 nM.
On to `CC(=O)N(C)CCNc1cncc(Oc2ccc(-c3cccc(N4CCN(C)CC4)n3)cc2)n1` [Compound 234, N-Methyl-N-[2-(6-{4-[6-(4-methyl-piperazin-1-yl)-pyridin-2-yl]-phenoxy}-pyrazin-2-ylamino)-ethyl]-acetamide], for which the concentration for half-maximal inhibition (IC50) is under 200 nM.
Compound `CC(=O)N(C)CCN(C)c1cncc(Oc2ccc(Cl)c(C(F)(F)F)c2)n1` [Compound 88, N-(2-{[6-(4-Chloro-3-trifluoro-methyl-phenoxy)-pyrazin-2-yl]-methyl-amino}-ethyl)-N-methyl-acetamide] registered an IC50 of 1000 to 10000 nM.
As for `CSc1cccc(Oc2cncc(N(C)CCN(C)C(=O)C(F)F)n2)c1` [Compound 75, 2,2-Difluoro-N-methyl-N-(2-{methyl-[6-(3-methyl-sulfanyl-phenoxy)-pyrazin-2-yl]-amino}-ethyl)-acetamide], the 50% inhibitory concentration (IC50) is 1000 to 10000 nM.
With `CCc1ccc(C2=NN(C(=O)c3ccc(Oc4cncc(N(C)CCN(C)C(C)=O)n4)cc3)CCC2)cc1` [Compound 148, N-{2-[(6-{4-[3-(4-Ethyl-phenyl)-5,6-dihydro-4H-pyridazine-1-carbonyl]-phenoxy}-pyrazin-2-yl)-methyl-amino]-ethyl}-N-methyl-acetamide], the IC50 was in the range of 1000 to 10000 nM.
With `CC(=O)N(C)CCCc1cncc(Oc2ccc(-c3ccc(F)cn3)cc2)n1` [Compound 220, N-(3-{6-[4-(5-Fluoro-pyridin-2-yl)-phenoxy]-pyrazin-2-yl}-propyl)-N-methyl-acetamide], the concentration for half-maximal inhibition (IC50) was in the range of 1000 to 10000 nM.
Consider `CCN(CCN(CC)c1cncc(Oc2ccc(F)cc2)n1)C(C)=O` [Compound 102, N-Ethyl-N-(2-{ethyl-[6-(4-fluoro-phenoxy)-pyrazin-2-yl]-amino}-ethyl)-acetamide], for which the IC50 was 200 to 1000 nM.
Regarding `CC(=O)N(C)CCN(C)c1cncc(Oc2ccc(-c3ncnc4[nH]ccc34)cc2)n1` [Compound 191, N-Methyl-N-[2-(methyl-{6-[4-(7H-pyrrolo[2,3-d]pyrimidin-4-yl)-phenoxy]-pyrazin-2-yl}-amino)-ethyl]-acetamide], the half-maximal inhibitory concentration (IC50) is under 200 nM.
The figure for `CCC1Sc2ccccc2NC1c1ccc(Oc2cncc(N(C)CCN(C)C(C)=O)n2)cc1` (stereo not drawn) [Compound 135, N-[2-({6-[4-(2-Ethyl-3,4-dihydro-2H-benzo[1,4]thiazin-3-yl)-phenoxy]-pyrazin-2-yl}-methyl-amino)-ethyl]-N-methyl-acetamide] is 1000 to 10000 nM; for `CC(=O)N(C)CCN(C)c1cncc(Oc2ccc(-c3ccccn3)cc2)n1` [Compound 133, N-Methyl-N-(2-{methyl-[6-(4-pyridin-2-yl-phenoxy)-pyrazin-2-yl]-amino}-ethyl)-acetamide] it is under 200 nM.
The compound `CC(=O)N(C)CCOc1cncc(Oc2ccc(F)cc2)n1` [Compound 188, N-{2-[6-(4-Fluoro-phenoxy)-pyrazin-2-yloxy]-ethyl}-N-methyl-acetamide] yielded an IC50 of 1000 to 10000 nM.
For the compound `NC(=O)CCNc1cncc(Oc2ccc(-c3cnc(N)cn3)cc2)n1` [Compound 301, 3-{6-[4-(5-Amino-pyrazin-2-yl)-phenoxy]-pyrazin-2-ylamino}-propionamide], the concentration for half-maximal inhibition (IC50) is 1000 to 10000 nM.
For `CC(=O)N(C)CCN(C)c1cncc(Oc2ccc(-c3ccc(C)cn3)cc2)c1` [Compound 320, N-Methyl-N-[2-(methyl-{5-[4-(5-methyl-pyridin-2-yl)-phenoxy]-pyridin-3-yl}-amino)-ethyl]-acetamide], the IC50 lay in the range of 200 to 1000 nM.
As for `CCOc1ccc(Oc2cncc(N(C)CCN(C)C(C)=O)n2)cc1` [Compound 123, N-(2-{[6-(4-Ethoxy-phenoxy)-pyrazin-2-yl]-methyl-amino}-ethyl)-N-methyl-acetamide], the figure is under 200 nM; as for `CC(=O)N(C)CCN(C)c1cncc(Oc2ccc(-c3cc(C)cc[n+]3[O-])cc2)n1` [Compound 174, N-Methyl-N-[2-(methyl-{6-[4-(4-methyl-1-oxy-pyridin-2-yl)-phenoxy]-pyrazin-2-yl}-amino)-ethyl]-acetamide], 200 to 1000 nM.

The values are drawn from patent US9493444B2 (Merck Patent GmbH, priority 2012, dated 2016).
